Assay results as given in patent publication US20190085024A1, “Alpha-Ketoamide Inhibitors Of Cysteine Proteases” (Phelix Therapeutics, priority 2017, published 2019).
*1 amine or outer side, *2 acyl side, *3 side chain or, on linkers, in order; H or OH if unused. Where a SMILES comes first, the peptide text is derived from it. [ ]: non-standard residue; d: D form. The star is where a group is joined. 2Nal = N[CH](Cc1ccc2ccccc2c1)C(=O)O; X1 = CCC(C)C(N[*:1])C(=O)C(=O)[*:2]; Cbz = O=C(OCc1ccccc1)*

Assays:
[1] = target: Cat S (Homo sapiens, UniProt P25774); assay: Cat S inhibition; assay type: biochemical
[2] = target: Calpain; assay: Calpain enzyme assay; assay type: biochemical; details: Ki by Morrison equation; pH 7.5, 5 mM CaCl2
[3] = target: Cathepsin L (Homo sapiens, UniProt P07711); assay: Cathepsin L enzyme assay; assay type: biochemical; details: Ki by Morrison equation; pH 5.5, substrate Z-Phe-Arg-Amc; read-out: Cat L
From the text: Two wells contained DMSO only for controls.
Velocity was converted to μM/sec.

[4] = system: MARV WT (Marburg Wild Type); assay: organism not typed; assay type: cell-based; details: read-out: MARV WT (μM) (Marburg Wild Type)
[5] = system: MERS WT; assay: microbe, parasite or virus in culture; assay type: cell-based; details: Middle East respiratory syndrome-related coronavirus, read-out: MERS WT (μM)
[6] = target: Cathepsin B (Homo sapiens, UniProt P07858); assay: Cathepsin B enzyme assay; details: Cat B (μM), Ki by Morrison equation; pH 6.0, substrate Z-Phe-Arg-Amc
[7] = system: EBOV WT (Ebola Wild Type); assay: microbe, parasite or virus in culture; assay type: cell-based; details: Zaire ebolavirus, read-out: EBOV WT (μM) (Ebola Wild Type)
[8] = target: T1, Cat K (Homo sapiens, UniProt P43235); assay: Cat K inhibition; assay type: biochemical
T1 sequence (P43235 115-329): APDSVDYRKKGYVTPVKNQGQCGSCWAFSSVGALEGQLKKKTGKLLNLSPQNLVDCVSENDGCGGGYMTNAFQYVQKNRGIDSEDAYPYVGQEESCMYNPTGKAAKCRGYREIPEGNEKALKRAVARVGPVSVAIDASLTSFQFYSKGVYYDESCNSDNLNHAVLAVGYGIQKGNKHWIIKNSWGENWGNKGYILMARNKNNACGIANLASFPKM

[9] = system: Collagen; assay: Fibrosis-Sirius Red Collagen Assay; assay type: cell-based

Chain of Cathepsin L (P07711 114-333, species assumed): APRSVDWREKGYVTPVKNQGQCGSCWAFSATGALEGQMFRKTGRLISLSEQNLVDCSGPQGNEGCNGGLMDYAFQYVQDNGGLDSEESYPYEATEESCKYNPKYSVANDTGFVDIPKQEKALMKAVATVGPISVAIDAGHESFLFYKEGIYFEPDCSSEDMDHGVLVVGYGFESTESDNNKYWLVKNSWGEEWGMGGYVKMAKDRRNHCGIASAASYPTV
Chain of Cat S (P25774 115-331): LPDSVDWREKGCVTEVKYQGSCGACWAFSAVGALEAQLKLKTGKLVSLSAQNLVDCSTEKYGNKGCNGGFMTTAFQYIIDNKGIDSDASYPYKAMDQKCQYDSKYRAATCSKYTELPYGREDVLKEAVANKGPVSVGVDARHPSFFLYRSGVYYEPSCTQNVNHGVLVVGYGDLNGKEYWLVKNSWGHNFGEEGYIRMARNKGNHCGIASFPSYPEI

| Compound | Ki [1] [nM] | Ki [2] [nM] | Ki [3] [nM] | IC50 [4] [µM] | IC50 [5] [µM] | Ki [6] [µM] | IC50 [7] [µM] | Ki [8] [nM] | IC50 [9] [nM] |
| --- | --- | --- | --- | --- | --- | --- | --- | --- | --- |
| CC(C)CC(NC(=O)OCc1ccccc1)C(=O)NC(C)C(=O)C(=O)NCC(=O)NC(Cc1ccc2ccccc2c1)C(N)=O (centres unmarked) [PHELIX184, benzyl (1-((4-((2-((1-amino-3-(naphthalen-2-yl)-1-oxopropan-2-yl)amino)-2-oxoethyl)amino)-3,4-dioxobutan-2-yl)amino)-4-methyl-1-oxopentan-2-yl)carbamate] | 1 | 10.3 | 4.85 | 3.34 | 7.2 | 0.641 | 1.87 | 0.5 |  |
| CC(C)CC(NC(=O)OCc1ccccc1)C(=O)NC(C)C(=O)C(=O)N1CC(C(=O)NC(Cc2ccccc2)C(N)=O)C1 (centres unmarked) [PHELIX187, benzyl (1-((4-(3-((1-amino-1-oxo-3-phenylpropan-2-yl)carbamoyl)azetidin-1-yl)-3,4-dioxobutan-2-yl)amino)-4-methyl-1-oxopentan-2-yl)carbamate] | 2.04 | 45.5 | 53.6 | 13.5 | 56 | 0.0479 | 3.66 | 3.8 |  |
| Cc1cccc(CC(=O)NC(Cc2ccccc2)C(=O)NC(C)C(=O)C(=O)NC(Cc2ccccc2)C(=O)NC(C)(C)C(N)=O)c1 (centres unmarked) [PHELIX225, N-(1-((1-amino-2-methyl-1-oxopropan-2-yl)amino)-1-oxo-3-phenylpropan-2-yl)-2-oxo-3-(3-phenyl-2-(2-(m-tolyl)acetamido)propanmido)butanamide] | 8.12 | > 10000 | 18.6 |  | 84.2 | 0.299 | 6.17 | 254 |  |
| CC(NC(=O)C(Cc1ccccc1)NC(=O)Cc1cccc(F)c1)C(=O)C(=O)NC(Cc1ccccc1)C(=O)NC(C)(C)C(N)=O (centres unmarked) [PHELIX227, N-(1-((1-amino-2-methyl-1-oxopropan-2-yl)amino)-1-oxo-3-phenylpropan-2-yl)-3-(2-(2-(3-fluorophenyl)acetamido)-3-phenylpropanmido)-2-oxobutanamide] | 16.3 | > 10000 | 58.9 |  | > 10 | 0.171 | 16.8 | 536 |  |
| CC(C)CC(NC(=O)C(Cc1ccccc1)NC(=O)OCc1ccccc1)C(=O)NC(Cc1ccccc1)C(=O)C(=O)NC(CCCNC(=N)N)C(N)=O (centres unmarked) [PHELIX254, benzyl (1-amino-10-benzyl-6-carbamoyl-1-imino-13-isobutyl-8,9,12,15-tetraoxo-17-phenyl-2,7,11,14-tetraazaheptadecan-16-yl)carbamate] |  | 3.42 | 0.71 |  | > 30 | 0.0432 |  |  | 3400 |
| CCC(C)C(NC(=O)C(CC(C)C)NC(=O)C(Cc1ccccc1)NC(=O)OCc1ccccc1)C(=O)C(=O)NCC(=O)NC(Cc1ccc2ccccc2c1)C(N)=O (centres unmarked) [PHELIX270, benzyl (1-amino-9-(sec-butyl)-12-isobutyl-2-(naphthalen-2-ylmethyl)-1,4,7,8,11,14-hexaoxo-16-phenyl-3,6,10,13-tetraazahexadecan-15-yl)carbamate] (Cbz-FL[X1]G[2Nal]-NH2; configuration not given here) |  | 0.53 | 1.82 |  | > 30 | > 10 |  |  | 3100 |
| CCC(C)C(NC(=O)C(CC(C)C)NC(=O)Cc1ccccc1)C(=O)C(=O)NCC(=O)NC(Cc1ccc2ccccc2c1)C(N)=O (centres unmarked) [PHELIX300, N-(2-((1-amino-3-(naphthalen-2-yl)-1-oxopropan-2-yl)amino)-2-oxoethyl)-4-methyl-3-(4-methyl-2-(2-phenylacetamido)pentanamido)-2-oxohexanamide] |  | 0.81 | 0.02 |  |  |  |  |  | 4500 |
| CCC(C)C(NC(=O)C(CC(C)C)NC(=O)OCc1ccccc1)C(=O)C(=O)NCC(=O)N(C)C(Cc1ccccc1)C(N)=O (centres unmarked) [PHELIX319, benzyl (1-((1-((2-((1-amino-1-oxo-3-phenylpropan-2-yl)(methyl)amino)-2-oxoethyl)amino)-4-methyl-1,2-dioxohexan-3-yl)amino)-4-methyl-1-oxopentan-2-yl)carbamate] |  | 0.68 | 0.28 |  |  | 0.456 |  |  | 11700 |
